Reference: patent US5739161A, “Agent for treating hepto.biliary diseases” (priority 1994, dated 1998)
Like-named read-outs stand apart in the source and are kept apart here. Each block holds one molecule with its values, some of them ahead of it.

Key:
[1] = system: acute hepatopathy model (galactosamine-elicited); assay: D-galactosamine acute hepatopathy model in rats, serum biochemical liver function test (inhibiting ratio); assay type: in vivo, rat (Crj: Wister); settings: rat, oral; for inhibition in vivo at 0.1 mg/kg / inhibition in vivo at 0.03 mg/kg / inhibition in vivo at 0.01 mg/kg / inhibition in vivo at 1 mg/kg: 24 h; for inhibition in vivo at 0.01 mg/kg: 10 μg/kg × 3
Protocol: (§1) Crj: Wister rats (7 weeks old, weight: 220-250 g) were kept without food for 16 hours, and hydrochloric acid-D-galactosamine 800 mg/kg was administrated by intra peritonealy injection in order to elicit acute hepatopathy model. After 24 hours from the administration of galactosamine, blood sample was collected under ether anesthesia and a serum was separated. The serum was assayed for serum biochemical profile of liver function test by an automatic analyzer (AU 550 available Orympus Kogaku Kogyo K.K.).
(§2) Test compound was dissolved in 0.5% ethanol physiological saline, which was orally administered by force using an oral sonde for rat at 30 minutes before, 2 hours and 6 hours after the administration of the galactosamine.
The following four items were tested for the serum biochemical liver function test: glutamic oxaloacetic transaminase (GOT), glutamic pyruvic transaminase (GPT) lactate dehydrogenase (LDH)
The inhibiting Ratio (%) was obtained by the results of the serum biochemical profile of liver functional test how much the increases in the above four items by the administration of galactosamine was inhibited by the test compounds. The Inhibiting, Ratio (%) was calculated by the following equation: [formula] (All of the data in the equation are represented by average) […]
(§3) This test was carried out according the same manner as in the Example 1 providing the following compounds were used as test compounds.
(§4) This test was carried out according the same manner as in the Example 1 using the following compounds as test compounds.
(§5) This test was carried out according the same manner as in the Example 1 excepting the following compounds were used as test compounds.

[2] = observation of diarrhea and loose feces in the rats; assay type: in vivo, rat (Crj: Wister); settings: rat, oral
Protocol: as §1, §2
The generation of a diarrhea and a loose feces observed up to 2 hours after the 3rd administration of the test compounds, and the number of the rats having diarrhea or loose feces were recorded.
as §3, §4, §5

[3] = system: hepatocyte; settings: cited from earlier work
[4] = 100 μg/kg × 3, read-out: inhibiting ratio GOT
[5] = 100 μg/kg × 3, read-out: inhibiting ratio GPT
[6] = 100 μg/kg × 3, read-out: inhibiting ratio T-Bil
[7] = 100 μg/kg × 3, up to 2 hours after 3rd administration
[8] = 30 μg/kg × 3, read-out: inhibiting ratio GOT
[9] = 30 μg/kg × 3, read-out: inhibiting ratio GPT
[10] = 30 μg/kg × 3, read-out: inhibiting ratio T-Bil
[11] = 30 μg/kg × 3, up to 2 hours after 3rd administration
[12] = read-out: inhibiting ratio T-Bil
[13] = 10 μg/kg × 3, up to 2 hours after 3rd administration
[14] = 1000 μg/kg × 3, read-out: inhibiting ratio GOT
[15] = 1000 μg/kg × 3, read-out: inhibiting ratio GPT
[16] = 1000 μg/kg × 3, read-out: inhibiting ratio T-Bil
[17] = 1000 μg/kg × 3, up to 2 hours after 3rd administration

diarrhea / loose feces (number of rats having diarrhea or loose feces) [2, 7]: 1/6 | loose feces (number of rats) [2, 7]: 2/6
SMILES: CCCCC(F)(F)C(=O)CC[C@H]1[C@H](O)CC(=O)[C@@H]1CCCCCCC(=O)O [Test Compound 3, 13,14-dihydro-15-keto-16,16-difluoro-PGE1, reference compound]
inhibition in vivo at 0.1 mg/kg [1, 4]: 63% | inhibition in vivo at 0.1 mg/kg [1, 5]: 76% | inhibition in vivo at 0.1 mg/kg [1, 6]: 80% | inhibiting ratio LDH ([1]; 100 μg/kg × 3): 61%

diarrhea / loose feces (number of rats having diarrhea or loose feces) [2, 11]: no diarrhea was observed in every rat
SMILES: CC(C)CCC(F)(F)C(=O)CC[C@H]1[C@H](O)CC(=O)[C@@H]1C/C=C\CCCC(=O)O [Test Compound 2, Z-7-[(1R,2R,3R)-2-(4,4-difluoro-7-methyl-3-oxooctyl)-3-hydroxy-5-oxocyclopentyl]hept-5-enoic acid]
inhibition in vivo at 0.03 mg/kg [1, 8]: 29% | inhibition in vivo at 0.03 mg/kg [1, 9]: 36% | inhibition in vivo at 0.03 mg/kg [1, 10]: 51% | inhibiting ratio LDH ([1]; 30 μg/kg × 3): 32%

diarrhea / loose feces (number of rats having diarrhea or loose feces) [2, 11]: 3/10
SMILES: CCCCC(F)(F)C(=O)CC[C@H]1[C@H](O)CC(=O)[C@@H]1C/C=C\CCCC(=O)O [Test Compound 1, 13,14-dihydro-15-keto-16,16-difluoro-PGE2, reference compound]
inhibition in vivo at 0.03 mg/kg [1, 8]: 28% | inhibition in vivo at 0.03 mg/kg [1, 9]: 42% | inhibition in vivo at 0.03 mg/kg [1, 10]: 82% | inhibiting ratio LDH ([1]; 30 μg/kg × 3): 22%

diarrhea / loose feces (number of rats having diarrhea or loose feces) [2, 13]: non
SMILES: CCC(CC)CC(F)(F)C(=O)CC[C@H]1[C@H](O)CC(=O)[C@@H]1CCCCCCC(=O)O [Test Compound 13, 7-[(1R,2R,3R)-2-(4,4-difluoro-6-ethyl-3-oxooctyl)-3-hydroxy-5-oxocyclopentyl]heptanoic acid]
inhibition in vivo at 0.01 mg/kg ([1]; read-out: inhibiting ratio GOT): 47% | inhibition in vivo at 0.01 mg/kg ([1]; read-out: inhibiting ratio GPT): 42% | inhibition in vivo at 0.01 mg/kg [1, 12]: 75%

SMILES: CCCCC[C@@](C)(O)/C=C/[C@H]1[C@H](O)CC(=O)[C@@H]1C/C=C\CCCC(=O)O [15-methyl-PGE2]
hepatocyte protecting activity [3]: have a hepatocyte protecting activity

diarrhea / loose feces (number of rats having diarrhea or loose feces) [2, 7]: non
SMILES: CC(C)CC(F)(F)C(=O)CC[C@H]1[C@H](O)CC(=O)[C@@H]1CCCCCCC(=O)O [Test Compound 12, 7-[(1R,2R,3R)-2-(4,4-difluoro-6-methyl-3-oxoheptyl)-3-hydroxy-5-oxocyclopentyl]heptanoic acid]
inhibition in vivo at 0.1 mg/kg [1, 4]: 38% | inhibition in vivo at 0.1 mg/kg [1, 5]: 40% | inhibition in vivo at 0.1 mg/kg [1, 6]: 69%

diarrhea / loose feces (number of rats having diarrhea or loose feces) [2, 17]: no diarrhea
SMILES: CCC[C@H](C)C(F)(F)C(=O)CC[C@H]1[C@H](O)CC(=O)[C@@H]1CCCCCCC(=O)O [Test Compound 8]
inhibition in vivo at 1 mg/kg [1, 14]: 59% | inhibition in vivo at 1 mg/kg [1, 15]: 56% | inhibition in vivo at 1 mg/kg [1, 16]: 92% | inhibiting ratio LDH ([1]; 1000 μg/kg × 3): 63%

diarrhea / loose feces (number of rats having diarrhea or loose feces) [2, 7]: no diarrhea in any cases
SMILES: CCC[C@@H](C)C(F)(F)C(=O)CC[C@H]1[C@H](O)CC(=O)[C@@H]1CCCCCCC(=O)O [Test Compound 4, 7-[(1R,2R,3R)-2-{4,4-difluoro-5(R)-methyl-3-oxooctyl}-3-hydroxy-5-oxocyclopentyl]heptanoic acid]
inhibition in vivo at 0.1 mg/kg [1, 4]: 54% | inhibition in vivo at 0.1 mg/kg [1, 5]: 57% | inhibition in vivo at 0.1 mg/kg [1, 6]: 89% | inhibiting ratio LDH ([1]; 100 μg/kg × 3): 51%

diarrhea / loose feces (number of rats having diarrhea or loose feces) [2, 7]: no diarrhea in any cases
SMILES: CC(C)CCC(F)(F)C(=O)CC[C@H]1[C@H](O)CC(=O)[C@@H]1CCCCCCC(=O)O [Test Compound 5, 7-[(1R,2R,3R)-2-(4,4-difluoro-7-methyl-3-oxooctyl)-3-hydroxy-5-oxocyclopentyl]heptanoic acid]
inhibition in vivo at 0.1 mg/kg [1, 4]: 51% | inhibition in vivo at 0.1 mg/kg [1, 5]: 66% | inhibition in vivo at 0.1 mg/kg [1, 6]: 72% | inhibiting ratio LDH ([1]; 100 μg/kg × 3): 59%

diarrhea / loose feces (number of rats having diarrhea or loose feces) [2, 17]: no diarrhea
SMILES: CC(C)C[C@@H](C)C(F)(F)C(=O)CC[C@H]1[C@H](O)CC(=O)[C@@H]1CCCCCCC(=O)O [Test Compound 6, 7-[(1R,2R,3R)-2-{4,4-difluoro-5(R),7-dimethyl-3-oxooctyl}-3-hydroxy-5-oxocyclopentyl]heptanoic acid]
inhibition in vivo at 1 mg/kg [1, 14]: 60% | inhibition in vivo at 1 mg/kg [1, 15]: 71% | inhibition in vivo at 1 mg/kg [1, 16]: 88% | inhibiting ratio LDH ([1]; 1000 μg/kg × 3): 63%

SMILES: CCCCC(C)(C)[C@H](O)/C=C/[C@H]1[C@H](O)CC(=O)[C@@H]1C/C=C\CCCC(=O)O [16,16-dimethyl-PGE2]
hepatocyte protecting activity [3]: have a hepatocyte protecting activity

diarrhea / loose feces (number of rats having diarrhea or loose feces) [2, 7]: non | diarrhea / loose feces (number of rats having diarrhea or loose feces) [2, 17]: non
SMILES: CC[C@H](C)CC(F)(F)C(=O)CC[C@H]1[C@H](O)CC(=O)[C@@H]1CCCCCCC(=O)O [Test Compound 9, 7-[(1R,2R,3R)-2-{4,4-difluoro-6(S)-methyl-3-oxooctyl}-3-hydroxy-5-oxocyclopentyl]heptanoic acid]
inhibition in vivo at 0.1 mg/kg [1, 4]: 44% | inhibition in vivo at 0.1 mg/kg [1, 5]: 54% | inhibition in vivo at 0.1 mg/kg [1, 6]: 80% | inhibition in vivo at 1 mg/kg [1, 14]: 84% | inhibition in vivo at 1 mg/kg [1, 15]: 88% | inhibition in vivo at 1 mg/kg [1, 16]: 95%

diarrhea / loose feces (number of rats having diarrhea or loose feces) [2, 13]: non
SMILES: CC[C@@H](C)CC(F)(F)C(=O)CC[C@H]1[C@H](O)CC(=O)[C@@H]1CCCCCCC(=O)O [Test Compound 11, 7-[(1R,2R,3R)-2-{4,4-difluoro-6(R)-methyl-3-oxooctyl}-3-hydroxy-5-oxocyclopentyl]heptanoic acid]
inhibition in vivo at 0.01 mg/kg ([1]; read-out: inhibiting ratio GOT): 45% | inhibition in vivo at 0.01 mg/kg ([1]; read-out: inhibiting ratio GPT): 34% | inhibition in vivo at 0.01 mg/kg [1, 12]: 56%

diarrhea / loose feces (number of rats having diarrhea or loose feces) [2, 7]: non
SMILES: CCC[C@@H](C)C(F)(F)C(=O)CC[C@H]1CCC(=O)[C@@H]1CCCCCCC(=O)O [Test Compound 10, 7-[(1R,2R)-2-{4,4-difluoro-5(R)-methyl-3-oxooctyl}-5-oxocyclopentyl]heptanoic acid]
inhibition in vivo at 0.1 mg/kg [1, 4]: 36% | inhibition in vivo at 0.1 mg/kg [1, 5]: 39% | inhibition in vivo at 0.1 mg/kg [1, 6]: 59%

diarrhea / loose feces (number of rats having diarrhea or loose feces) [2, 17]: no diarrhea
SMILES: CC(C)CCC(F)(F)C(=O)CC[C@H]1CCC(=O)[C@@H]1CCCCCCC(=O)O [Test Compound 7, 7-[(1R,2R)-2-(4,4-difluoro-7-methyl-3-oxooctyl)-5-oxocyclopentyl]heptanoicacid]
inhibition in vivo at 1 mg/kg [1, 14]: 52% | inhibition in vivo at 1 mg/kg [1, 15]: 63% | inhibition in vivo at 1 mg/kg [1, 16]: 86% | inhibiting ratio LDH ([1]; 1000 μg/kg × 3): 62%
